# Results taken from patent US20060073541A1, “Lipophilic dyes and their application for detection of myelin” (priority 2004, published 2006).
# How the values were obtained:
# myelin [1] = test: Myelin staining of mouse brain cryosections, label pattern comparison; settings: for labeling of myelin (selectivity): 1 μM or 500 nM in PBS; for myelin label pattern / non-specific background labeling / single axon labeling: 16 μm mouse brain cryosections, dyes 500 nM 20 minutes; for myelin label pattern: sagittal and cross sections, anti-MBP 5 μg/ml overnight; for emission wavelength (Em) / excitation wavelength (Ex): dye on labeled mouse brain cryosections
# Experimental: In an exemplary embodiment, the present method stains and detects myelin in brain tissue sections that have been immobilized on a glass slide. In this instance a protocol for labeling brain cryosections comprises: • 1. Rehydrate and/or Permeabilize. Bring tissue sections on slides to room temperature, then rehydrate in either PBS (phosphate-buffered saline, 0.05M, pH 7.4) or PBT (PBS+0.2% Triton X-100) for at least 20 minutes. Permeabilization with Triton X-100 is not necessary for labeling using the present lipophilic dyes, but is likely necessary for any other counterstains or antibodies to be used. • 2. Prepare Label Solution. Prepare the labeling solution by diluting the stock solution 300-fold with PBS to make a final recommended concentration of 500 nM dye. • 3. Label Step. Flood the section with labeling solution and stain for 20 minutes at room temperature. • 4. Wash. When labeling is complete, remove solution, rinse in PBS, and wash 3×10 minutes with PBS. • 5. Counterstaining and Mounting. At this point tissues can be counterstained as necessary, or mounted with an aqueous antifade mounting medium such as ProLong or ProLong Gold reagent.
# Use of this antibody allows for specific labeling with which to compare the present lipophilic dyes and chromogenic method label patterns. […] Tissue was sectioned on a cryostat and mounted on Plus slides and stored at −80° C. Upon use, tissue sections were brought to room temperature and rehydrated in PBT (0.5 M phosphate-buffered saline containing 0.2% Triton X-100 and 0.2% BSA) for 30 minutes. Sections were blocked for 1 hour in 5% normal goat serum/3% BSA/PBT, then labeled overnight at 4° using 5 μg/ml rat anti-MBP primary antibody from Chemicon (MAB386). After washing in PBT, tissues were washed in Image-iT FX signal enhancer (136933, Molecular Probes, Inc., Eugene, Oreg.) for 30 minutes, then washed again in PBT. Sections were incubated in Alexa Fluor 488 goat anti-rat secondary antibody (A11006, Molecular Probes, Inc.) for 2 hours, washed in PBT, and mounted in ProLong antifade solution (P7481, Molecular Probes, Inc.). Images were collected on a Nikon E800 epifluorescence upright microscope using a Princeton MicroMax cooled CCD digital camera, MetaMorph acquisition software, and Adobe Photoshop image analysis software (Ex 495/Em 519, FITC Filter Set).
# Other than antibody labeling techniques, myelin labeling is traditionally performed using long and complicated chromogenic (non-fluorescent) dye protocols. One of the most common is the Loyez Technique. A more recent, and more specific method is Schmued's Gold Chloride Technique. These two methods were used for comparison to the present dyes. • I. Schmued's Gold Chloride Technique. Based on a method by Laurence C. Schmued [1990. A rapid, sensitive histochemical stain for myelin in frozen brain sections. J. Histochem Cytochem. 38(5): 717-720]. Tissues were rehydrated in PBT for 30 minutes, then labeled for 3.5 hours in 0.2% gold chloride in 0.02 M neutral phosphate buffer with 0.9% sodium chloride. After a water rinse, tissues were post-fixed for 5 minutes in 2.5% sodium thiosulfate, rinsed in running tap water for 30 minutes, and mounted in mowiol. Images were collected using transmitted light on the system outlined in part A of this example. Myelin was labeled a brown-red color. […] Loyez Technique. Adapted from H. C. Cook. 1974. […] London: Butterworths. pp. 161-162. Tissues were rehydrated and permeabilized 30 minutes in PBT, then treated with 4% iron alum overnight at room temperature. After a water wash, tissues were stained overnight in a 10% alcoholic haematoxylin solution with lithium carbonate at room temperature. After two 10-minute water washes, tissues were destained for approximately 20 seconds in 4% iron alum, and washed in water. After a final wash in borax-ferricyanide to colorize the myelin blue-black, tissues were washed in water and mounted in mowiol. Images were scanned as in section B. I. Of this example. […]
# myelin [2] = test: Myelin staining in combination with NeuroTrace Nissl stains and DAPI on mouse brain cryosections; settings: 500 nM dye, NeuroTrace Nissl stain 1:300, DAPI
# Experimental: (§1) A 16 μm mouse brain cryosection, cross section through diencephalon, was rehydrated for 20 minutes in PBT (0.5 M phosphate-buffered saline containing 0.2% Triton X-100 and 0.2% BSA). The three dyes were mixed into the final stain solution (in PBS), such that there was a concentration of 500 nM of Compound 1, 1:300 dilution of NeuroTrace Red Nissl Stain, and 0.1 μg/ml DAPI. Sections were labeled in this combination for 20 minutes, then washed well in PBT prior to mounting in Prolong antifade mounting medium (Molecular Probes, Inc.). Images were collected on a Nikon E800 epifluorescence upright microscope using a Princeton MicroMax cooled CCD digital camera, MetaMorph acquisition software, and Adobe Photoshop image analysis software.
# as §1, with “(0.5M” for “(0.5 M”, “nM” for “nM of”, “2,” for “1,”
# 12 μm thick mouse brain cryosections, either cross-sectioned through the mesencephalon or sagittal sections, were rehydrated and permeabilized for 20 minutes in PBT (PBS with 0.2% Triton X-100 and 0.2% BSA) then labeled 30 minutes with 500 nM Compound 4 in PBS. Sections were washed 3×10 minutes with PBT then labeled 20 minutes with NeuroTrace Green Nissl Stain (diluted 1:300 from stock). Sections were washed 3×5 minutes in PBS, labeled 1.5 minutes with 0.2 μg/mL DAPI, washed 3×5 minutes in PBS again, and mounted in Prolong Gold antifade mounting medium. Samples were compared to sections labeled with Compound 1 and Compound 2 as controls. Images were collected on a Nikon E800 epifluorescence upright microscope using a Princeton MicroMax cooled CCD digital camera, MetaMorph acquisition software, and Adobe Photoshop image analysis software.
# myelin [3] = test: Demyelinated mouse model test: control versus shiverer mouse brain cryosections
# Experimental: To illustrate the use of the present dyes for studying myelin diseases such as multiple sclerosis, adrenoleukodystrophy, Guillain-Barre syndrome, and others, Compound 1 was compared against rat anti-myelin basic protein (anti-MBP) primary antibody on control mouse brains versus shiverer mouse brain. […] Brain tissues were cryosectioned at 16 μm and mounted on PLUS slides. Control and shiverer tissues were treated either with anti-MBP primary and Alexa Fluor 488 goat anti-rat secondary or Compound 1. Tissues treated with the antibody were rehydrated and permeabilized in PBT (0.05 M phosphate buffered saline with 0.2% Triton X-100 and 0.2% bovine serum albumin (BSA)) for 20 minutes, then blocked in 5% normal goat serum/3% BSA/PBT for 1 hour. Tissues were then incubated overnight at 4° C. with 5 μg/mL rat anti-MBP (Chemicon, MAB386) in blocking solution. After washing 3×10 minutes in PBT, they were then incubated for 2 hours with 5 μg/mL Alexa Fluor 488 goat anti-rat secondary at room temperature. After further washing 3×10 minutes in PBT, tissues were counterstained with 0.2 μg/ml DAPI, washed 3×5 minutes in PBT, and mounted with ProLong antifade mounting medium (Invitrogen P36930). Tissues that were labeled with Compound 1 were rehydrated and permeabilized as above, then labeled 20 minutes with 500 nM Compound 1 and 0.2 μg/mL DAPI (together) in PBT. Tissues were washed 3×10 minutes PBT, then mounted as above. Images were collected on a Nikon E800 epifluorescence upright microscope using a Princeton MicroMax cooled CCD digital camera, an Omega XF100-2 FITC filter set, MetaMorph acquisition software, and Adobe Photoshop image analysis software. […] Myelin labeling was negative, as expected, for shiverer mice for both anti-MBP and Compound 1, illustrating that the present dyes work as well as anti-MBP for demyelination determination.
# myelin [4] = test: Detection of myelin in combination with antibodies (anti-GFAP) and DAPI on mouse brain cryosection
# Experimental: To test whether use of Compound 1 interrupts antibody binding, Compound 1 was used in conjunction with anti-GFAP on mouse brain sections. A 16 μm mouse brain cryosection, cross-section through the rostral mesencephalon, was rehydrated and permeabilized in PBT (0.05 M phosphate buffered saline with 0.2% Triton X-100 and 0.2% BSA) for 20 minutes, the washed for 30 minutes with Image-iT FX Signal Enhancer (Molecular Probes, Inc.) to block non-specific Alexa Fluor dye binding to myelin. After washing in PBT, the section was blocked for 1 hour in 5% normal goat serum/0.2% Triton X-100/3% BSA, then incubated overnight at 4° C. in 5 μg/ml mouse anti-GFAP (glial fibrillary acidic protein) from Molecular Probes (A21282) in blocking buffer. Sections were washed well in PBT, then incubated in Alexa Fluor 680 goat anti-mouse secondary antibody (A21057, Molecular Probes, Inc.) for 2 hours. After washing in PBT, sections were labeled in 500 nM of Compound 1 for 20 minutes with 0.1 μg/ml DAPI. After a final wash in PBT, sections were mounted in Prolong antifade mountant (Molecular Probes, inc.). Images were collected on a Nikon E800 epifluorescence upright microscope using a Princeton MicroMax cooled CCD digital camera, MetaMorph acquisition software, and Adobe Photoshop image analysis software.
spectral qualities (myelin [1]; 12 μm mouse brain cryosections),emission wavelength (Em) (myelin [1]) [nm],excitation wavelength (Ex) (myelin [1]) [nm],SMILES,labeling of myelin (selectivity) (myelin [1]; 12 μm mouse brain cryosections),"concentration sufficient for labeling with minimal background (myelin [1]; 12 μm mouse brain cryosections, in PBS) [nM]",disruption of labels / compatibility with NeuroTrace Nissl stain and DAPI (myelin [2]),label pattern in combination with NeuroTrace Nissl stain and DAPI (myelin [2]),myelin label pattern (myelin [1]),non-specific background labeling (myelin [1]),single axon labeling (myelin [1]),staining brightness compared with anti-MBP (myelin [3]; control mice brain),"myelin labeling in control mice (myelin [3]; control mice brain, 16 μm cryosections, 500 nM dye 20 minutes or 5 μg/mL anti-MBP overnight)",background labeling (myelin [3]; general membrane labeling),"myelin labeling in shiverer mice (myelin [3]; shiverer (demyelinated) mouse brain, 16 μm cryosections)","label pattern in conjunction with anti-GFAP (myelin [4]; 500 nM 20 minutes with 0.1 μg/ml DAPI after anti-GFAP / Alexa Fluor 680 secondary, rostral mesencephalon cross-section)",inhibition of staining pattern (myelin [4]; 500 nM dye with anti-GFAP antibody labeling)
comparable to Compound 2,,,CCCCN(CCCC)c1ccc(C=CC=CC=Cc2cc[n+](CCC[N+](C)(C)C)cc2)cc1 [Compound 4],highly selective labeling of myelin,500,compatible with NeuroTrace Green Nissl Stain labeling and DAPI labeling,label pattern comparable to the control dyes,,,,,,,,,
,594,479,CCCCN(CCCC)c1ccc(C=Cc2cc[n+](CCC[N+](CC)(CC)CC)cc2)cc1 [Compound 1],selective myelin labeling,,no evidence of disruption of any of the three labels,"tracts in the fornix, fornix superior, capsula interna, and striatum",specific myelin labeling in expected axon bundles and tracts,some non-specific background labeling was visualized,single axon labeling was not seen,twice as bright,labeled myelin in control mice,slight background labeling,negative,labeled axon tracts and bundles,no inhibition of staining pattern by either label
,734,558,CCCCN(CCCC)c1ccc(C=CC=CC=Cc2cc[n+](CCC[N+](CC)(CC)CC)cc2)cc1 [Compound 2],selective myelin labeling,,no evidence of disruption of any of the three labels,"tracts in the fornix, fornix superior, capsula interna, and striatum",specific myelin labeling in expected axon bundles and tracts,some non-specific background labeling was visualized,single axon labeling was not seen,,,,,,
